US20250346583A1, “NEW DERIVATIVES FOR TREATING TRPM3 MEDIATED DISORDERS” (Katholieke Universiteit Leuven, priority 2022, published 2025)

Target: T1, mouse TRPM3α2 (mTRPM3) ion channel (Mus musculus, UniProt J9SQF3)
T1 construct: expressed in transfected cells; host or cells: flip-in HEK293
Assay: TRPM3 ion channel driven Ca2+ uptake, Fluo-4 AM assay in overexpressing flip-in HEK293 cells
Assay type: cell-based
Conditions: inhibition of Ca2+ influx stimulated with Pregnenolone sulfate (PS) 50 μM
Procedure: Monitoring the TRPM3 Ion Channel Driven Ca^2+ Uptake.
In order to monitor the inhibition of the mouse TRPM3α2 (mTRPM3) ion channel by the compounds of the invention, a cellular system making use of an mTRPM3alpha2 or hTRPM3 overexpressing cell line (flip-in HEK293) was used. The TRPM3 channel was stimulated/opened with Pregnenolone sulfate (PS) (50 μM) which results in Ca^2+ influx.
For mTRPM3, the intracellular Ca^2+ was measured with a Calcium responsive dye, Fluor-4 AM ester (Invitrogen). Cells were cultured until a confluence of 80-90%, washed with Versene (Invitrogen) and detached from the surface by a short incubation with 0.05% Trypsin (Invitrogen). The trypsination process was stopped by the addition of complete cell culture medium (DMEM, glutamax,10% FCS, NEAA, Pen-Strep). Cells were collected and resuspended in Krebs buffer without Calcium at RT.
Prior the cell seeding (+2000 cells/well into a black, 384 well plate (Greiner)) the diluted compound was added in the assay plate, together with the PS dissolved in Krebs buffer containing Calcium. […] Directly after cell addition the plates were read on an Envision fluorescence reader (Perkin Elmer) by an Excitation of 485 nm and emission at 535 nm.
Channel inhibition was calculated compared to a non-PS stimulated control versus a condition stimulated with PS (50 μM) with vehicle. The ability of the compounds of the invention to inhibit this activity was determined as: Percentage inhibition=[1-((RFU determined for sample with test compound present - RFU determined for sample with positive control inhibitor) divided by (RFU determined in the presence of vehicle - RFU determined for sample with positive control inhibitor))]*100.
The activities of the Example compounds tested are depicted in the table below. The activity ranges A, B and C refer to IC50 values in the Fluo-4 AM assay as follows: “A”: IC50<1 μM; “B”: 1 μM<IC50<20 μM and “C”: IC50>20 μM

T1 sequence (J9SQF3 1-1709 isoform J9SQF3-12): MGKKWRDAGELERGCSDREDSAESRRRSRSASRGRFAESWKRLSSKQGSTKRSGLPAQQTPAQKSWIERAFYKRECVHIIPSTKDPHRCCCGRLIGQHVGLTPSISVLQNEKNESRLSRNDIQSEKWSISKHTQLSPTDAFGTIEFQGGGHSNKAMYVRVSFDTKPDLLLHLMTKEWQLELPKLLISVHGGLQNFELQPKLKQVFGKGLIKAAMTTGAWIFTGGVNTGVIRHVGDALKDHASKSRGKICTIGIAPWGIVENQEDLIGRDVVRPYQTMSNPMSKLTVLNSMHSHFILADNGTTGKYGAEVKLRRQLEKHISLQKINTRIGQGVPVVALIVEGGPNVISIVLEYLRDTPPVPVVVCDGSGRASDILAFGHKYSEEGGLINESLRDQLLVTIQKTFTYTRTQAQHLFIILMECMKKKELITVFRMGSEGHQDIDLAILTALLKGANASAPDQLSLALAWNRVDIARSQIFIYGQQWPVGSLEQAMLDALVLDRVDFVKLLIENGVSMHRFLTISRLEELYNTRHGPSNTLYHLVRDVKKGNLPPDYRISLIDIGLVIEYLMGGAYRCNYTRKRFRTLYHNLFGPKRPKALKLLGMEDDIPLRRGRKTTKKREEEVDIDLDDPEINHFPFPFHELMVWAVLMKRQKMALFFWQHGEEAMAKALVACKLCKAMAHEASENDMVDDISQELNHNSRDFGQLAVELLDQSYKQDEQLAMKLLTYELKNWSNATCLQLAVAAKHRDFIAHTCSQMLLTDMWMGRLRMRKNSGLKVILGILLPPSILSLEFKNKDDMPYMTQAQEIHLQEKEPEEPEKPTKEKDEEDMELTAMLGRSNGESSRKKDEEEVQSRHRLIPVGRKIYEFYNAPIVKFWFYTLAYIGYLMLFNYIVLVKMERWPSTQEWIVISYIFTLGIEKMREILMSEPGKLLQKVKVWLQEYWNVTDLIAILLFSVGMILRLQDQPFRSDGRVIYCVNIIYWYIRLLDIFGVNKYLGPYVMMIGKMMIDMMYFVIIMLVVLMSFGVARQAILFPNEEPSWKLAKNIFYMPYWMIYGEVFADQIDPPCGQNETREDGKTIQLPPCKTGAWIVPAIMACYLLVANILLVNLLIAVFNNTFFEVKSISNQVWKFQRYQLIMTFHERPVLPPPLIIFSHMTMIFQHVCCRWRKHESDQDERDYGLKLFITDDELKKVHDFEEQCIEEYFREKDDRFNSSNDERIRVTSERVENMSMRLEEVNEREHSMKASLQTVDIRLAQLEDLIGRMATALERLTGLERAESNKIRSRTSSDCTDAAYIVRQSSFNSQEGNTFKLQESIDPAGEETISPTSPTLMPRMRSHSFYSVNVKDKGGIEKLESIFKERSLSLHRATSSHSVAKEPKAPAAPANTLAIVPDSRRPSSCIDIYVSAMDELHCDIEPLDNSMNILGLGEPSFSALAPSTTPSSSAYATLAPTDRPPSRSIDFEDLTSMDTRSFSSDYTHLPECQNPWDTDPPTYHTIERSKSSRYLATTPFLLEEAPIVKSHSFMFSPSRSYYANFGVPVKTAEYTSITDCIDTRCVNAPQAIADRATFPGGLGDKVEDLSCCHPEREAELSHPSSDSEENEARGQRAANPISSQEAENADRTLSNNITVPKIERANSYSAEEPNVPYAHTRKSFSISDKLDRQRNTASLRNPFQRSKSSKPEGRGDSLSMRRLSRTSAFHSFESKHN

Compound	IC50 [µM]
Cc1oc2ccc(OCc3cccnc3C(F)(F)F)cc2c1C1(CO)CC1 [Cpd 001, [1-(2-methyl-5-{[2-(trifluoromethyl)pyridin-3-yl]methoxy}-1-benzofuran-3-yl)cyclopropyl]methanol]	< 1
Cc1ncsc1COc1ccc2oc(C)c(-c3ncc(CO)o3)c2c1 [Cpd 002, (2-{2-methyl-5-[(4-methyl-1,3-thiazol-5-yl)methoxy]-1-benzofuran-3-yl}-1,3-oxazol-5-yl)methanol]	< 1
Cc1oc2ccc(OCc3cccnc3C(F)(F)F)cc2c1C1(NC(=O)CO)CC1 [Cpd 003, 2-hydroxy-N-[1-(2-methyl-5-{[2-(trifluoromethyl)pyridin-3-yl]methoxy}-1-benzofuran-3-yl)cyclopropyl]acetamide]	< 1
Cc1ncsc1COc1ccc2oc(C)c(C3(CO)CC3)c2c1 [Cpd 004, (1-{2-methyl-5-[(4-methyl-1,3-thiazol-5-yl)methoxy]-1-benzofuran-3-yl}cyclopropyl)methanol]	< 1
Cc1oc2ccc(OCc3cccnc3C(F)(F)F)cc2c1C1(NS(=O)(=O)C2CC2)CC1 [Cpd 005, N-[1-(2-methyl-5-{[2-(trifluoromethyl)pyridin-3-yl]methoxy}-1-benzofuran-3-yl)cyclopropyl]cyclopropanesulfonamide]	< 1
Cc1oc2ccc(OCc3cccnc3C(F)(F)F)cc2c1C1(NS(C)(=O)=O)CC1 [Cpd 006, N-[1-(2-methyl-5-{[2-(trifluoromethyl)pyridin-3-yl]methoxy}-1-benzofuran-3-yl)cyclopropyl]methanesulfonamide]	< 1
Cc1ncsc1COc1ccc2oc(C)c(-c3ncc(CO)[nH]3)c2c1 [Cpd 007, (2-{2-methyl-5-[(4-methyl-1,3-thiazol-5-yl)methoxy]-1-benzofuran-3-yl}-1H-imidazol-4-yl)methanol]	< 1
COCCC(=O)NC1(c2c(C)oc3ccc(OCc4cccnc4C(F)(F)F)cc23)CC1 [Cpd 008, 3-methoxy-N-[1-(2-methyl-5-{[2-(trifluoromethyl)pyridin-3-yl]methoxy}-1-benzofuran-3-yl)cyclopropyl]propanamide]	< 1
Cc1oc2ccc(OCc3cccnc3C(F)(F)F)cc2c1C1(NC(=O)C(C)(C)O)CC1 [Cpd 009, 2-hydroxy-2-methyl-N-[1-(2-methyl-5-{[2-(trifluoromethyl)pyridin-3-yl]methoxy}-1-benzofuran-3-yl)cyclopropyl]propanamide]	< 1
COCC(=O)NC1(c2c(C)oc3ccc(OCc4cccnc4C(F)(F)F)cc23)CC1 [Cpd 010, 2-methoxy-N-[1-(2-methyl-5-{[2-(trifluoromethyl)pyridin-3-yl]methoxy}-1-benzofuran-3-yl)cyclopropyl]acetamide]	< 1
Cc1ncsc1COc1ccc2oc(C)c(C3(C#N)CC3)c2c1 [Cpd 011, 1-{2-methyl-5-[(4-methyl-1,3-thiazol-5-yl)methoxy]-1-benzofuran-3-yl}cyclopropane-i-carbonitrile]	< 1
Cc1oc2ccc(OCc3cccnc3C(F)(F)F)cc2c1C1(NCC(N)=O)CC1 [Cpd 012, 2-{[1-(2-methyl-5-{[2-(trifluoromethyl)pyridin-3-yl]methoxy}-1-benzofuran-3-yl)cyclopropyl]amino}acetamide]	< 1
Cc1oc2ccc(OCc3cccnc3C(F)(F)F)cc2c1C1(NS(=O)(=O)CC2CC2)CC1 [Cpd 013, 1-cyclopropyl-N-[1-(2-methyl-5-{[2-(trifluoromethyl)pyridin-3-yl]methoxy}-1-benzofuran-3-yl)cyclopropyl]methanesulfonamide]	< 1
Cc1oc2ccc(OCc3cccnc3C(F)(F)F)cc2c1C1(N)CC1 [Cpd 014, 1-(2-methyl-5-{[2-(trifluoromethyl)pyridin-3-yl]methoxy}-1-benzofuran-3-yl)cyclopropan-1-amine]	1 to 20
Cc1oc2ccc(OCc3cccnc3C(F)(F)F)cc2c1C1(NC(C)C(N)=O)CC1 (centres unmarked) [Cpd 015, 2-{[1-(2-methyl-5-{[2-(trifluoromethyl)pyridin-3-yl]methoxy}-1-benzofuran-3-yl)cyclopropyl]amino}propanamide]	1 to 20
Cc1oc2ccc(OCc3cccnc3C(F)(F)F)cc2c1C1(CN)CC1 [Cpd 016, 1-[1-(2-methyl-5-{[2-(trifluoromethyl)pyridin-3-yl]methoxy}-1-benzofuran-3-yl)cyclopropyl]methanamine]	1 to 20

Compound	IC50 [µM]
Cc1ncsc1COc1ccc2oc(C)c(C3(NC(=O)CO)CC3)c2c1 [Cpd 017, 2-hydroxy-N-(1-{2-methyl-5-[(4-methyl-1,3-thiazol-5-yl)methoxy]-1-benzofuran-3-yl}cyclopropyl)acetamide]	1 to 20
Cc1oc2ccc(OCc3cccnc3O)cc2c1C1=NC(CO)(CO)CO1 [Cpd 018, 3-[({3-[4,4-bis(hydroxymethyl)-4,5-dihydro-1,3-oxazol-2-yl]-2-methyl-1-benzofuran-5-yl}oxy)methyl]pyridin-2-ol]	1 to 20
Cc1oc2ccc(OCc3ccccc3)cc2c1C1(C#N)CC1 [Cpd 019, 1-[5-(benzyloxy)-2-methyl-1-benzofuran-3-yl]cyclopropane-1-carbonitrile]	1 to 20
Cc1ncsc1COc1ccc2oc(C)c(C3(C(=O)NCCO)CC3)c2c1 [Cpd 020, N-(2-hydroxyethyl)-1-{2-methyl-5-[(4-methyl-1,3-thiazol-5-yl)methoxy]-1-benzofuran-3-yl}cyclopropane-1-carboxamide]	1 to 20
Cc1oc2ccc(OCc3ccccc3)cc2c1C1(CO)CC1 [Cpd 021, {1-[5-(benzyloxy)-2-methyl-1-benzofuran-3-yl]cyclopropyl}methanol]	1 to 20
Cc1ncsc1COc1ccc2oc(C)c(C3(C(N)=O)CC3)c2c1 [Cpd 022, 1-{2-methyl-5-[(4-methyl-1,3-thiazol-5-yl)methoxy]-1-benzofuran-3-yl}cyclopropane-1-carboxamide]	1 to 20
Cc1oc2ccc(OCc3c(F)cccc3Cl)cc2c1-c1nn[nH]n1 [Cpd 023, 5-{5-[(2-chloro-6-fluorophenyl)methoxy]-2-methyl-1-benzofuran-3-yl}-2H-1,2,3,4-tetrazole]	1 to 20
Cc1oc2ccc(OCc3ccccn3)cc2c1C1(N)CC1 [Cpd 024, 1-{2-methyl-5-[(pyridin-2-yl)methoxy]-1-benzofuran-3-yl}cyclopropan-i-amine]	1 to 20
Cc1oc2ccc(OCC3CC3)cc2c1C1(N)CC1 [Cpd 025, 1-[5-(cyclopropylmethoxy)-2-methyl-1-benzofuran-3-yl]cyclopropan-i-amine]	> 20
Cc1ncc(COc2ccc3oc(C)c(C4(N)CC4)c3c2)s1 [Cpd 026, 1-{2-methyl-5-[(2-methyl-1,3-thiazol-5-yl)methoxy]-1-benzofuran-3-yl}cyclopropan-i-amine]	> 20
Cc1ncsc1COc1ccc2oc(C)c(C3(N)CC3)c2c1 [Cpd 027, 1-{2-methyl-5-[(4-methyl-1,3-thiazol-5-yl)methoxy]-1-benzofuran-3-yl}cyclopropan-i-amine]	> 20
Cc1noc(-c2c(C)oc3ccc(OCc4c(F)cccc4Cl)cc23)n1 [Cpd 028, 5-{5-[(2-chloro-6-fluorophenyl)methoxy]-2-methyl-1-benzofuran-3-yl}-3-methyl-1,2,4-oxadiazole]	> 20
Cc1oc2ccc(OCc3ccccc3)cc2c1-c1cncc(CC(F)(F)F)n1 [Cpd 029, 2-[5-(benzyloxy)-2-methyl-1-benzofuran-3-yl]-6-(2,2,2-trifluoroethyl)pyrazine]	> 20
Cc1oc2ccc(OCc3ccccc3)cc2c1-c1nccc(CC(F)(F)F)n1 [Cpd 030, 2-[5-(benzyloxy)-2-methyl-1-benzofuran-3-yl]-4-(2,2,2-trifluoroethyl)pyrimidine]	> 20
Cc1oc2ccc(OCc3ccccc3)cc2c1-c1cncc(CO)n1 [Cpd 031, {6-[5-(benzyloxy)-2-methyl-1-benzofuran-3-yl]pyrazin-2-yl}methanol]	> 20
Cc1oc2ccc(OCc3ccccc3)cc2c1-c1nccc(CO)n1 [Cpd 032, {2-[5-(benzyloxy)-2-methyl-1-benzofuran-3-yl]pyrimidin-4-yl}methanol]	> 20
